The target in data set [1] is cannabinoid CB1 receptors. Kind of data set: in vitro affinity for cannabinoid CB1 receptors (Rinaldi-Carmona et al., FEBS Letters 1994). The data set is classed as binding. The settings on record: conditions of Rinaldi-Carmona et al., FEBS Letters, 1994, 350, 240-244.
A short description of data set [2]: toxicity.

Each structure is given as a SMILES string.

What is called IC50 is the concentration at which inhibition is half-maximal. Low values mean higher potency, high ones lower potency.

cannabinoid CB1 receptors, sequence (P21554 whole entry): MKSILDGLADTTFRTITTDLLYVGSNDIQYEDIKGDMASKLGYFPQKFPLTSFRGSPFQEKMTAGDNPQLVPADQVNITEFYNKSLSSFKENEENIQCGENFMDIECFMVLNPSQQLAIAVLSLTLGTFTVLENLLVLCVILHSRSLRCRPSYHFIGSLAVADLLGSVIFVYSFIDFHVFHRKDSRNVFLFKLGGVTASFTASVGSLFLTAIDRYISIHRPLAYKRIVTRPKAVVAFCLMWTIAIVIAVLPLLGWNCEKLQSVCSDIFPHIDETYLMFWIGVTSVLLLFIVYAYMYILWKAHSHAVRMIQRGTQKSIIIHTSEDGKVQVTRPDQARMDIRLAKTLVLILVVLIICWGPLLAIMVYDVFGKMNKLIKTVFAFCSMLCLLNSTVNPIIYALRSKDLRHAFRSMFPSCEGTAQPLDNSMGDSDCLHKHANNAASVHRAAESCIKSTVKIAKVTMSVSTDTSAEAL

The compound `CCc1c(C(=O)NN2CCC(O)CC2)nn(-c2ccc(Cl)cc2Cl)c1-c1ccc(Br)cc1` [compound of formula (I), 5-(4-Bromophenyl)-1-(2,4-dichlorophenyl)-4-ethyl-N-(hydroxypiperidin-1-yl)-1H-pyrazole-3-carboxamide] yielded an IC50 in data set [1] of 32 nM. The toxicity entry in data set [2] is on record as “compatible with its use as a medicinal product”.

These data come from patent US20060004055A1, “Derivative of 5-(4-bromophenyl)-1-(2,4-dichlorophenyl)-4-ethyl-N-(piperidine-1-yl)-1H-pyrazole-3-carboxamide, the preparation and therapeutic use thereof” (Sanofi-Aventis, priority 2002, published 2006).
